Test results as given in patent US4371535A, “Method of and composition for delivering 5-fluorouracil to tumors” (priority 1976, dated 1983).
Read-outs that look alike come from different tables or passages of the source.

Experiments:
[1] = in vivo; type: in vivo; settings: mouse, in vivo, oral, mice
Procedure: (§1) Mice (ddy strain, male, 5 weeks old) are reared for one week, then fasted for 15 hours and thereafter orally given the compound forcibly. After the administration, the mice are placed into plastic cages, with free access to a solid diet and water, and checked for mortality 3 days, one week, 2 weeks and 3 weeks later. LD50 is calculated according to the method of Litchfield and Wilcoxon.

[2] = system: Mice (ddy strain); assay: in vivo; type: in vivo; settings: for LD50: oral, mice
Procedure: as §1

[3] = system: sarcoma 180; assay: Anti-tumor activity on sarcoma 180, subcutaneous transplant; type: in vivo; settings: mice, oral once daily 7 days, 121.5 mg/kg (bis) or 90 mg/kg (mono); for Weight of tumor: 10th day, control 1.00 ± 0.09 g; for Inhibition percentage: tumor weight on 10th day
Procedure: (§2) As transplantable tumors, Ehrlich carcinoma and sarcoma 180 are used for mice and Yoshida sarcoma and AH 130 for rats. […] The effect of the compound is determined in terms of the weight of tumor on the 10th day from the transplantation.

[4] = system: cellular immunity; settings: mouse, in vivo
Procedure: A predetermined amount of 7 wt. % ethanol solution of picryl chloride is given to the shaved abdomens of mice for sensitization. […] On the seventh day after the sensitization, a 1 wt. % olive oil solution of picryl chloride is applied to the inside of both ears of each animal to give rise to a delayed cutireaction. The thickness of the ear resulting from the reaction in 24 hours is measured to calculate the percentage of inhibition on immunity.

[5] = system: Yoshida sarcoma; assay: Anti-tumor activity on Yoshida sarcoma, subcutaneous transplant; type: in vivo; settings: rats, oral once daily 7 days, 121.5 mg/kg (bis) or 90 mg/kg (mono); for Weight of tumor: 10th day, control 4.48 ± 0.60 g; for Inhibition percentage: tumor weight on 10th day
Procedure: as §2

[6] = system: tumor; assay: Anti-tumor activity, overall comparison with 1-(2-tetrahydrofuryl)-5-fluorouracil; type: in vivo; settings: versus 1-(2-tetrahydrofuryl)-5-fluorouracil
Procedure: as §2

[7] = rat, in vivo; for Concentration of 5-fluorouracil in blood: po
Procedure: (§3) Cells of the tumor, AH-130, 5×10^6 in number, are subcutaneously transplanted in the armpit region of test animals (3 in each group). […] The concentration of 5-fluorouracil in the blood and in the cancer cellular tissue of the animals are measured 1, 2, 4, 8 and 12 hours after the administration.

[8] = system: Ehrlich carcinoma; assay: Anti-tumor activity on Ehrlich carcinoma, subcutaneous transplant; type: in vivo; settings: mice, oral once daily 7 days; for Inhibition percentage: 121.5 mg/kg (bis) or 90 mg/kg (mono), tumor weight on 10th day; for Weight of tumor: 121.5 mg/kg (bis) or 90 mg/kg (mono, equimolar), 10th day, control 0.61 ± 0.08 g
Procedure: as §2

[9] = Toxicity and side effects, overall statement; settings: versus 1-(2-tetrahydrofuryl)-5-fluorouracil
[10] = Conversion in the body into 5-fluorouracil; settings: in vivo
Procedure: as §3

[11] = rat, in vivo; for Concentration of 5-fluorouracil in cancer cellular tissue: po
Procedure: as §3

[12] = Solubility; type: physicochemical
[13] = system: AH-130; assay: Anti-tumor activity on AH-130, subcutaneous transplant; type: in vivo; settings: rats, oral once daily 7 days, 121.5 mg/kg (bis) or 90 mg/kg (mono); for Weight of tumor: 10th day, control 2.10 ± 0.50 g; for Inhibition percentage: tumor weight on 10th day
Procedure: as §2

[14] = system: immunity; settings: versus 5-fluorouracil; Giller et al., British Pat. No. 1,168,391; cited from earlier work
[15] = cited from earlier work
[16] = system: transplanted tumors; settings: Heidelberger et al.; cited from earlier work

| SMILES | Weight of tumor [3] [g] | Inhibition percentage [3] [%] | Weight of tumor [5] [g] | Inhibition percentage [5] [%] | Concentration of 5-fluorouracil in blood ([7]; 60 min) [ng/mL] | Concentration of 5-fluorouracil in blood ([7]; 120 min) [ng/mL] | Concentration of 5-fluorouracil in blood ([7]; 240 min) [ng/mL] | Concentration of 5-fluorouracil in blood ([7]; 480 min) [ng/mL] | Concentration of 5-fluorouracil in blood ([7]; 720 min) [ng/mL] | Inhibition percentage [8] [%] | Weight of tumor [8] [g] | Concentration of 5-fluorouracil in cancer cellular tissue ([11]; 60 min) [ng/mL] | Concentration of 5-fluorouracil in cancer cellular tissue ([11]; 120 min) [ng/mL] | Concentration of 5-fluorouracil in cancer cellular tissue ([11]; 240 min) [ng/mL] | Concentration of 5-fluorouracil in cancer cellular tissue ([11]; 480 min) [ng/mL] | Concentration of 5-fluorouracil in cancer cellular tissue ([11]; 720 min) [ng/mL] | Weight of tumor [13] [g] | Inhibition percentage [13] [%] | also measured |
| --- | --- | --- | --- | --- | --- | --- | --- | --- | --- | --- | --- | --- | --- | --- | --- | --- | --- | --- | --- |
| O=c1c(F)cn(C2CCCO2)c(=O)n1C1CCCO1 (centres unmarked) [1,3-bis(2-tetrahydrofuryl)-5-fluorouracil] | 0.31 ± 0.10 | 69 | 2.59 ± 0.33 | 42 | 5880 | 5080 | 2650 | 570 | 200 | 57 | 0.26 ± 0.06 | 8930 | 7530 | 7530 | 5400 | 2130 | 0.92 ± 0.35 | 56 | LD50 at 504 h ([1]; 3 weeks): 2560 mg/kg; LD50 at 72 h ([1]; 3 days): 2980 mg/kg; LD50 ([2]; 1 week, 10080 min): 2,780 mg/kg; LD50 ([2]; 2 weeks, 20160 min): 2,664 mg/kg; Acute toxicity relative to the conventional composition ([2]; versus composition containing 1-(2-tetrahydrofuryl)-5-fluorouracil): about one-third; Inhibitory effect on the cellular immunity relative to the conventional composition [4]: lower inhibitory effect on the cellular immunity; Anti-tumor activity, in words [6]: more excellent anti-tumor activity; Concentration of 5-fluorouracil in the blood relative to the conventional composition [7]: 10-20 times; Side effects, in words [9]: less side effects; Toxicity, in words [9]: lower toxicity; Conversion in the body (prodrug) [10]: converted in the body into 5-fluorouracil; Concentration of 5-fluorouracil in cancer cellular tissue relative to the conventional composition [11]: 10-20 times; Concentration of 5-fluorouracil maintained in cancer cellular tissue, in words [11]: much higher; Solubility ([12]; methanol, ethanol, acetone, ether, chloroform, glacial acetic acid, dimethyl sulfoxide): soluble; Solubility ([12]; water, aqueous caustic soda solution, ethyl acetate, hydrochloric acid): sparingly soluble |
| O=c1[nH]c(=O)n(C2CCCO2)cc1F (centres unmarked) [1-(2-tetrahydrofuryl)-5-fluorouracil, reference compound] | 0.36 ± 0.11 | 64 | 3.48 ± 0.68 | 22 | 200 | 300 | 200 | 80 | ≤ 40 | 39 | 0.37 ± 0.14 | ≤ 200 | 350 | 350 | 340 | ≤ 200 | 1.11 ± 0.17 | 47 | Inhibition on immunity, in words [14]: less inhibitory on immunity than 5-fluorouracil; Toxicity, in words ([15]; versus 5-fluorouracil, Giller et al., British Pat. No. 1,168,391): lower in toxicity |
| O=c1[nH]cc(F)c(=O)[nH]1 [5-fluorouracil] | – | – | – | – | – | – | – | – | – | – | – | – | – | – | – | – | – | – | Anti-tumor activity, in words [16]: inhibit transplanted tumors; Toxicity, in words ([15]; background statement): highly toxic; Side effects, in words ([15]; in vivo): reduced immunity, gastro-intestinal ulceration, leucopenia and various other side effects |
